Assay [1] concerns Ras protein in ras-transformed cells. The assay is described as follows: Gel Shift Assay. Type of assay: cell-based. Particulars: 18-hour incubation, read-out: Gel Shift (μM) MED. As for the experimental part:
Twenty-four hours after planting 2×10^6 ras-transformned cells per treatment condition, the farnesylation inhibitor is added at varying concentrations. Following an 18-hour incubation period, cells are lysed in phosphate-buffered saline containing 1% Triton X-100, 0.5% sodium deoxycholate, and 0.1% SDS (sodium dodecyl sulfate), pH 7.4 in the presence of several protease inhibitors (PMSF (phenylmethylsulfonylfluoride), antipain, leupeptin, pepstatin A, and aprotinin all at 1 μg/mL). Ras protein is immunoprecipitated from the supernatants by the addition of 3 μg v-H-ras Ab-2 (Y13-259 antibody from Oncogene Science). After overnight immunoprecipitation, 30 μL of a 50% protein G-Sepharose slurry (Pharmacia) is added followed by 45-minute incubation. Pellets are resuspended in 2×tris-glycine loading buffer (Novex) containing 5% mercaptoethanol and then denatured by 5 minutes boiling prior to electrophoresis on 14% Tris-glycine SDS gels. Using Western transfer techniques, proteins are transferred to nitrocellulose membranes followed by blocking in blocking buffer. Upon overnight incubation with primary antibody (pan-ras Ab-2 from Oncogene Science), an antimouse HRP (horse radish peroxidase) conjugate secondary antibody (Amersham) is employed for detection of the ras protein. Blots are developed using ECL(enhanced chemiluminescence) techniques (Amersham).
(In EMSA bound probe runs differently from free probe, usually more slowly.)

The target of assay [2] is T1, SF9 affinity purified rat FPT (Rattus norvegicus, UniProt Q02293+Q04631).
T1 construct: made in house; host or cells: Sf9 insect cells
The assay is described as follows: PFT inhibitory activity. Format: biochemical. The following applies: average of two tests. As for the experimental part: The protein:farnesyl transferase (PFT) or farnesyl protein transferase (FPT) inhibitory activity of compounds of the present invention were assayed in HEPES buffer (pH 7.4) containing 5 mM potassium phosphate and 20 μM ZnCl2. The solution also contained 5 mM DTT (dithiothreitol), 5 mM MgCl2, and 0.1% PEG 8000. Assays were performed in 96 well plates (Wallec) and employed solutions composed of varying concentrations of a compound of the present invention in 10% DMSO (dimethylsulfoxide). Upon addition of both substrates, radiolabeled farnesyl pyrophosphate ([1^3H], specific activity 15-30 Ci/mmol, final concentration 134 nM) and (biotinyl)-Ahe-Thr-Lys-Cys-Val-Ile-Met ([3aS[3a alpha, 4 beta, 6a alpha]-hexahydro-2-oxo-1H-thieno[3,4-d]imidazole-5-pentanoic acid]-[7-aminoheptanoic acid]-Thr-Lys-Cys-Val-Ile-Met) (Ahe is 7-aminoheptanoic acid, Thr is threonine, Lys is lysine, Cys is cysteine, Val is valine, Ile is isoleucine, and Met is methionine) (final concentration 0.2 4μM), the enzyme reaction was started by addition of SF9 affinity purified rat FPT. After incubation at 30° C. for 30 minutes, the reaction was terminated by diluting the reaction 2.5-fold with a stop buffer containing 1.5 M magnesium acetate, 0.2 M H3PO4, 0.5% BSA (bovine serum albumin), and strepavidin beads (Amersham) at a concentration of 1.3 mg/mL. After allowing the plate to settle for 30 minutes at room temperature, radioactivity was quantitated on a microBeta counter (Model 1450, Wallec). The assay was also carried out without 5 mM potassium phosphate.

For assay [3], the system named is human lung carcinoma with K-ras mutation and p53 deletion. Particulars: nude mice; cited from earlier work.
For assay [4], the system named is mammary and salivary carcinomas. The following applies: daily administration; ras transgenic mice; cited from earlier work.
The mark [5] stands for this setting: HEPES buffer pH 7.4, without 5 mM potassium phosphate, read-out: IC50 (μM) Hepes.
Where [6] appears, read: HEPES buffer pH 7.4 containing 5 mM potassium phosphate, read-out: IC50 (μM) Hepes/5 mM KPO4^−2.

This is an account of results in US6369034B1, “Functionalized alkyl and alenyl side chain derivatives of glycinamides as farnesyl transferase inhibitors” (Warner-Lambert Company, priority 1998, dated 2002).

Where two headings read alike, the source gives them in different places.

Turning to `C[C@@H](c1ccccc1)N(CC(=O)NCC(C)(C)c1ccccc1)C(=O)[C@H](Cc1c[nH]cn1)NC(=O)OCc1ccccc1` [Example 1, Benzyl N-((1S)-1-(1H-4-imidazolylmethyl)-2-2-[(2-methyl-2-phenylpropyl)amino]-2-oxoethyl[(1S)-1-phenylethyl]amino-2-oxoethyl)carbamate], the minimal effective concentration in assay [1] was 0.01 µM. Also, the results for the IC50 in assay [2] (setting [5]) and in assay [2] (setting [6]) were 0.57 µM and 0.001 µM, respectively.

As for `C[C@H](c1ccccc1)N(CC(=O)NCC(C)(C)c1ccccc1)C(=O)[C@H](Cc1c[nH]cn1)NC(=O)OCc1ccccc1` [Example 2, Benzyl N-((1S)-1-(1H-4-imidazolylmethyl)-2-2-[(2-methyl-2-phenylpropyl)amino]-2-oxoethyl[(1R)-1-phenylethyl]amino-2-oxoethyl)carbamate], in assay [1], the minimal effective concentration was 1 µM. For the same molecule, the IC50 in assay [2] (setting [5]) was determined as 8.3 µM; in assay [2] (setting [6]), 0.065 µM.

For the molecule `CC(C)(CNC(=O)CN(CC(C)(C)c1ccccc1)C(=O)[C@H](Cc1c[nH]cn1)NC(=O)OCc1ccccc1)c1ccccc1` [Example 3, Benzyl N-[(1S)-1-(1H-4-imidazolylmethyl)-2-((2-methyl-2-phenylpropyl)2-[(2-methyl-2-phenylpropyl)amino]-2-oxoethylamino)-2-oxoethyl]carbamate], the minimal effective concentration in assay [1] worked out at 0.01 µM. Moreover, the IC50 in assay [2] (setting [5]) was 0.098 µM; in assay [2] (setting [6]), 0.001 µM.

As to `COC(=O)CCN(CC(=O)NCC(C)(C)c1ccccc1)C(=O)[C@H](Cc1c[nH]cn1)NC(=O)OCc1ccccc1` [Example 4, Methyl 3-([(2S)-2-[(benzyloxy)carbonyl]amino-3-(1H-4-imidazolyl)propanoyl]-2-[(2-methyl-2-phenylpropyl)amino]-2-oxoethylamino)propanoate], the minimal effective concentration in assay [1] was 0.1 µM. Also, the IC50 is 5 µM in assay [2] (setting [5]) and 0.018 µM in assay [2] (setting [6]).

As to `CC(C)(CNC(=O)CN(CCC(=O)O)C(=O)[C@H](Cc1c[nH]cn1)NC(=O)OCc1ccccc1)c1ccccc1` [Example 5, 3-([(2S)-2-[(Benzyloxy)carbonyl]amino-3-(1H-4-imidazolyl)propanoyl]-2-[(2-methyl-2-phenylpropyl)amino]-2-oxoethylamino)propanoic acid], the minimal effective concentration in assay [1] stood at 1 µM. Besides, the IC50 was 2.3 µM in assay [2] (setting [5]) and under 0.001 µM in assay [2] (setting [6]).

For the molecule `CC(C)(CNC(=O)CN(CCN)C(=O)C(Cc1cnc[nH]1)NC(=O)OCc1ccccc1)c1ccccc1` (centres unmarked) [Example 6, [1-{(2-Amino-ethyl)-[(2-methyl-2-phenyl-propylcarbamoyl)-methyl]-carbamoyl}-2-(3H-imidazol-4-yl)-ethyl]-carbamic acid benzyl ester], the minimal effective concentration in assay [1] is over 1 µM. Besides, the IC50 is 36 µM in assay [2] (setting [5]) and 0.072 µM in assay [2] (setting [6]).

Regarding `CNCCN(CC(=O)NCC(C)(C)c1ccccc1)C(=O)[C@H](Cc1c[nH]cn1)NC(=O)OCc1ccccc1` [Example 7, Benzyl N-[(1S)-1-(1H-4-imidazolylmethyl)-2-([2-(methylamino)ethyl]-2-[(2-methyl-2-phenylpropyl)amino]-2-oxoethylamino)-2-oxoethyl]carbamate], the values for the IC50 in assay [2] (setting [5]) and in assay [2] (setting [6]) were over 30 µM and 0.92 µM, respectively.

For the molecule `COCCN(CC(=O)NCC(C)(C)c1ccccc1)C(=O)C(Cc1cnc[nH]1)NC(=O)OCc1ccccc1` (centres unmarked) [Example 8, (2-(3H-Imidazol-4-yl)-1-{(2-methoxy-ethyl)-[(2-methyl-2-phenyl-propylcarbamoyl)-methyl]-carbamoyl}-ethyl)-carbamic acid benzyl ester], the minimal effective concentration in assay [1] was 0.2 µM. Besides, the IC50 in assay [2] (setting [5]) amounted to 4.8 µM; in assay [2] (setting [6]), 0.019 µM.

As for `C/C=C/CN(CC(=O)NCC(C)(C)c1ccccc1)C(=O)[C@H](Cc1c[nH]cn1)NC(=O)OCc1ccccc1` [Example 9, Benzyl N-[2-((E)-2-butenyl-2-[(2-methyl-2-phenylpropyl)amino]-2-oxoethylamino)-1-(1H-4-imidazolylmethyl1)-2-oxoethyl]carbamate], the minimal effective concentration in assay [1] came out at 0.01 µM. Further, the IC50 worked out at 1.4 µM in assay [2] (setting [5]) and 0.011 µM in assay [2] (setting [6]).

For `CC(OC(=O)NC(Cc1c[nH]cn1)C(=O)N(CC(=O)NCC(C)(C)c1ccccc1)Cc1ccc(OCc2ccccc2)cc1)c1ccccc1` (centres unmarked) [Example 10, [1-{(4-Benzyloxy-benzyl)-[(2-methyl-2-phenyl-propylcarbamoyl)-methyl]-carbamoyl}-2-(1H-imidazol-4-yl)-ethyl]-carbamic acid 1-phenyl-ethyl ester], the minimal effective concentration in assay [1] turned out to be 0.01 µM. For the same molecule, the IC50 in assay [2] (setting [5]) came out at 0.25 µM; in assay [2] (setting [6]), 0.004 µM.

On to `CC(C)(CNC(=O)CN(CCN1CCOCC1)C(=O)[C@H](Cc1c[nH]cn1)NC(=O)OCc1ccccc1)c1ccccc1` [Example 11, Benzyl N-(1S)-1-(1H-4-imidazolylmethyl)-2-[2-[(2-methyl-2-phenylpropyl)amino]-2-oxoethyl(2-morpholinoethyl)amino]-2-oxoethylcarbamate], for which the minimal effective concentration in assay [1] is 0.2 µM. Moreover, the IC50 in assay [2] (setting [5]) amounted to 2.1 µM; in assay [2] (setting [6]), 0.016 µM.

On to `CC(C)OC(=O)CCN(CC(=O)NCC(C)(C)c1ccccc1)C(=O)[C@H](Cc1c[nH]cn1)NC(=O)OCc1ccccc1` [Example 12, 3-{[2-Benzyloxycarbonylamino-3-(3H-imidazol-4-yl)-propionyl]-[(2-methyl-2-phenyl-prolylcarbamoyl)-methyl]-amino}-propionic acid isopropyl ester], for which the figures for the IC50 in assay [2] (setting [5]) and in assay [2] (setting [6]) were 2.2 µM and 0.034 µM, respectively.

In the case of `CN(C)C(=O)CCN(CC(=O)NCC(C)(C)c1ccccc1)C(=O)C(Cc1cnc[nH]1)NC(=O)OCc1ccccc1` (centres unmarked) [Example 13, [1-{(2-Dimethylcarbamoyl-ethyl)-[(2-methyl-2-phenyl-propylcarbamoyl)-methyl]-carbamoyl}-2-(3H-imidazol-4-yl)ethyl]-carbamic acid benzyl ester], the IC50 in assay [2] (setting [5]) came to 4 µM; in assay [2] (setting [6]) it was 0.007 µM.

For the molecule `CSCCN(CC(=O)NCC(C)(C)c1ccccc1)C(=O)C(Cc1cnc[nH]1)NC(=O)OCc1ccccc1` (centres unmarked) [Example 14, {2-(3H-Imidazol-4-yl)-1-[[(2-methyl-2-phenyl-propylcarbamoyl)-methyl]-(2-methylsulfanyl-ethyl)-carbamoyl]-ethyl}-carbamic acid benzyl ester], in assay [1], the minimal effective concentration is 0.05 µM. For the same molecule, the IC50 in assay [2] (setting [5]) amounted to 1.2 µM; in assay [2] (setting [6]) it was 0.006 µM.

Regarding `CSCC[C@H](NC(=O)c1ccc(NC[C@@H](N)CS)cc1-c1ccccc1)C(=O)O` [FT1276], the tumor growth entry in assay [3] was “selectively block tumor growth”.

Regarding `CC[C@H](C)[C@@H](CO[C@@H](Cc1ccccc1)C(=O)N[C@@H](CCS(C)(=O)=O)C(=O)OC(C)C)NC[C@@H](N)CS` [L-744,832], the tumor regression result in assay [4] is “caused tumor regression”.
